Patent publication US10117871B2, “3-hydroxypyrimidine-2,4-dione-5-carboxamides as potent inhibitors of HIV” (Regents of the University of Minnesota, priority 2015, dated 2018)
Like-named read-outs stand apart in the source and are kept apart here.

What was measured:
CEM-SS cells = experiment: Compound cytotoxicity (MTS) in the HIV cytoprotection assay; assay type: cell-based; conditions: for Cell viability %: 10 μM, CEM-SS cells; for CC50: Concentration resulting in 50% cell death
Protocol: (§1) The antiviral activity of newly synthesized analogues of chemotype 7 was evaluated against HIV-1IIIB in CEM-SS cells using an assay based on viral cytopathic effect (CPE). In this assay, the reduction of CPE was used to indicate the antiviral activity of a compound.
Briefly virus and cells were mixed in the presence of test compound and incubated for 6 days. […] Each assay plate contained cell control wells (cells only), virus control wells (cells plus virus), compound toxicity control wells (cells plus compound only), compound colorimetric control wells (compound only) as well as experimental wells (compound plus cells plus virus). […] Each assay included AZT as a positive control.

HIV-1IIIB = experiment: HIV-1 cytoprotection (CPE reduction) antiviral assay; assay type: cell-based; conditions: for inhibition at 10 µM: read-out: CPE reduction %
Protocol: as §1
Briefly virus and cells were mixed in the presence of test compound and incubated for 6 days. […] Each assay plate contained cell control wells (cells only), virus control wells (cells plus virus), compound toxicity control wells (cells plus compound only), compound colorimetric control wells (compound only) as well as experimental wells (compound plus cells plus virus). Cytoprotection and compound cytotoxicity were assessed by MTS (CellTiter® 96 Reagent, Promega, Madison Wis.) and the EC50 (concentration inhibiting virus replication by 50%), CC50 (concentration resulting in 50% cell death) and a calculated TI (therapeutic index CC50/EC50) were provided. Each assay included AZT as a positive control.

HIV-1 integrase = biological target: T1, HIV-1 integrase (Human immunodeficiency virus type 1 group M subtype B, UniProt P04585); experiment: HIV-1 integrase strand transfer (INST) assay; assay type: biochemical
T1 construct: HIV integrase was expressed and purified as previously reported; made in house; host or cells: Escherichia coli
Protocol: HIV integrase was expressed and purified as previously reported.^43 Inhibition assays were performed using a modified protocol of a reported method.^43 Briefly, 2.1 μL of compound suspended in DMSO was placed in duplicate into a Black 96 well non-binding plate (coming 3991). Compounds were plated in duplicate to a final concentration of 0.13-100 μM. To each well of the plate 186.9 μL of reaction mixture without DNA substrate was added (10 mM HEPES pH 7.5, 10% glycerol w/v, 10 mM MnCl2, 1 mM DTT, 1 μM integrase). The enzyme was incubated with inhibitor for 10 min at 25° C. after which the reaction was initiated by the addition of 21 μL of 500 nM oligo (5′ biotin […] annealed with […] 3′ Cy5). Reactions were incubated at 37° C. for 30 min and then quenched by the addition of 5.2 μL 500 mM EDTA. Each reaction was moved (200 μL) to a MultiScreen HTS PCR plate (Millipore MSSLBPC10) containing 20 μL streptavidin agarose beads (Life Technologies S951) and incubated with shaking for 30 min. A vacuum manifold was used to remove the reaction mixture and the beads were similarly washed 3 times with wash buffer (0.05% SDS, 1 mM EDTA in PBS). The plates were further washed 3 times with 200 μL 50 mM NaOH to denature DNA not covalently linked to the biotin modification. For each denaturation step the plate was incubated with shaking at 25° C. for 5 min and the NaOH was removed by centrifugation at 1000 g for 1 min. The reaction products were eluted from the beads by the addition of 150 μL formamide. The plate was incubated at 25° C. for 10 min and read directly at 635/675 in a SpectraMax i3 plate reader (Molecular Devices). Expression and purification of the recombinant IN in Escherichia coli were performed as previously reported^39, 44 with addition of 10% glycerol to all buffers. Preparation of oligonucleotide substrates has been described.^45 Integrase reactions were performed in 10 μL with 400 nM of recombinant IN, 20 nM of 5′-end [^32P]-labeled oligonucleotide substrate and inhibitors at various concentrations. Solutions of 10% DMSO without inhibitors were used as controls. Reactions were incubated at 37° C. (60 minutes) in buffer containing 50 mM MOPS, pH 7.2, 7.5 mM MgCl2, and 14.3 mM 2-mercaptoethanol. Reactions were stopped by addition of 10 μL of loading dye (10 mM EDTA, 98% deionized formamide, 0.025% xylene cyanol and 0.025% bromophenol blue). Reactions were then subjected to electrophoresis in 20% polyacrylamide-7 M urea gels. Gels were dried and reaction products were visualized and quantitated with a Typhoon 8600 (GE Healthcare, Little Chalfont, Buckinghamshire, UK). Densitometric analyses were performed using ImageQuant from Molecular Dynamics Inc. The concentrations at which enzyme activity was reduced by 50% (IC50) were determined using “Prism” software (GraphPad Software, San Diego, Calif.) for nonlinear regression to fit dose-response data to logistic curve models.

[1] = Human immunodeficiency virus 1, CEM-SS
[2] = Human immunodeficiency virus 1, 10 μM, HIV-1IIIB in CEM-SS cells
[3] = Human immunodeficiency virus 1, summary of Table 2, read-out: EC50

| SMILES | Cell viability % (CEM-SS cells) [%] | inhibition at 10 µM (HIV-1IIIB; [2]) [%] | IC50 (HIV-1 integrase; read-out: INST IC50) [nM] | further results |
| --- | --- | --- | --- | --- |
| O=C(NCc1ccccc1)c1c(Nc2ccccc2)[nH]c(=O)n(O)c1=O [Compound 7-i, N-Benzyl-1-(hydroxy)-1,2,3,6-tetrahydro-2,6-dioxo-4-(phenylamino)pyrimidine-5-carboxamide] | 21 |  |  | inhibition at 10 µM (HIV-1IIIB; [1]): 0% |
| O=C(NCc1ccccc1)c1c(Nc2ccc(-c3ccccc3)cc2)[nH]c(=O)n(O)c1=O [Compound 7-ii, N-Benzyl-1-(hydroxy)-1,2,3,6-tetrahydro-2,6-dioxo-4-(biphenylamino)pyrimidine-5-carboxamide] | 13 |  |  | inhibition at 10 µM (HIV-1IIIB; [1]): 0% |
| O=C(NCc1cccc(F)c1)c1c(Nc2ccc(-c3ccccc3)cc2)[nH]c(=O)n(O)c1=O [Compound 7-iii, N-(3-Fluorobenzyl)-1-(hydroxy)-1,2,3,6-tetrahydro-2,6-dioxo-4-(biphenylamino)pyrimidine-5-carboxamide] | 8.7 | 0 | > 100000 |  |
| O=C(NCc1ccc(F)cc1)c1c(Nc2ccc(-c3ccccc3)cc2)[nH]c(=O)n(O)c1=O [Compound 7-iv, N-(4-Fluorobenzyl)-1-(hydroxy)-1,2,3,6-tetrahydro-2,6-dioxo-4-(biphenylamino)pyrimidine-5-carboxamide] | 9.1 | 0 | > 100000 |  |
| O=C(NCc1ccccc1)c1c(NC2CC2)[nH]c(=O)n(O)c1=O [Compound 7-ix, N-Benzyl-1-(hydroxy)-4-(cyclopropylamino)-1,2,3,6-tetrahydro-2,6-dioxopyrimidine-5-carboxamide] | 90 | 98 | 209 ± 77 |  |
| CNc1[nH]c(=O)n(O)c(=O)c1C(=O)NCc1ccccc1 [Compound 7-v, N-Benzyl-1-(hydroxy)-1,2,3,6-tetrahydro-4-(methylamino)-2,6 dioxopyrimidine-5-carboxamide] | 98 | 100 | 80 ± 7 | CC50 (CEM-SS cells): 58000 nM; EC50 (HIV-1IIIB; Human immunodeficiency virus 1): 830 nM |
| CCNc1[nH]c(=O)n(O)c(=O)c1C(=O)NCc1ccccc1 [Compound 7-vi, N-Benzyl-1-(hydroxy)-4-(ethylamino)-1,2,3,6-tetrahydro-2,6-dioxopyrimidine-5-carboxamide] | 100 |  | 33 ± 4 | CC50 (CEM-SS cells): 23000 nM; EC50 (HIV-1IIIB; Human immunodeficiency virus 1): 61 nM; inhibition at 10 µM (HIV-1IIIB; [1]): 100%; EC50 (HIV-1IIIB; [3]): 15 to 61 nM; IC50 (HIV-1 integrase; read-out: IC50 (ST)): 21 to 77 nM |
| CCCNc1[nH]c(=O)n(O)c(=O)c1C(=O)NCc1ccccc1 [Compound 7-vii, N-Benzyl-1-(hydroxy)-1,2,3,6-tetrahydro-2,6-dioxo-4-(propylamino)pyrimidine-5-carboxamide] | 97 | 100 | 66 ± 16 |  |
| CC(C)Nc1[nH]c(=O)n(O)c(=O)c1C(=O)NCc1ccccc1 [Compound 7-viii, N-Benzyl-1-(hydroxy)-1,2,3,6-tetrahydro-4-(isopropylamino)-2,6-dioxopyrimidine-5-carboxamide] | 17 | 0 | 150 ± 34 | cytotoxicity, in words (CEM-SS cells; single concentration 10 μM): cytotoxic; antiviral activity, in words (HIV-1IIIB; single concentration 10 μM, CPE assay): inactive |
| CC(C)(C)Nc1[nH]c(=O)n(O)c(=O)c1C(=O)NCc1ccccc1 [Compound 7-x, 4-(tert-Butylamino)-N-benzyl-1-(hydroxy)-1,2,3,6-tetrahydro-2,6-dioxopyrimidine-5-carboxamide] | 91 | 98 | 81 ± 15 |  |
| Nc1[nH]c(=O)n(O)c(=O)c1C(=O)NCc1ccccc1 [Compound 7-xi, 4-Amino-N-benzyl-1-(hydroxy)-1,2,3,6-tetrahydro-2,6-dioxopyrimidine-5-carboxamide] | 100 | 99 | 900 ± 290 |  |
| CNc1[nH]c(=O)n(O)c(=O)c1C(=O)NCc1cccc(F)c1 [Compound 7-xii, N-(3-Fluorobenzyl)-1-(hydroxy)-1,2,3,6-tetrahydro-4-(methylamino)-2,6-dioxopyrimidine-5-carboxamide] | 95 | 100 | 250 ± 48 |  |
| CNc1[nH]c(=O)n(O)c(=O)c1C(=O)NCc1ccc(F)cc1 [Compound 7-xiii, N-(4-Fluorobenzyl)-1-(hydroxy)-1,2,3,6-tetrahydro-4-(methylamino)-2,6-dioxopyrimidine-5-carboxamide] | 89 | 100 | 110 ± 21 |  |
| CNc1[nH]c(=O)n(O)c(=O)c1C(=O)NCc1cccc(Cl)c1F [Compound 7-xiv, N-(3-Chloro-2-fluorobenzyl)-1-(hydroxy)-1,2,3,6-tetrahydro-4-(methylamino)-2,6-dioxopyrimidine-5-carboxamide] | 100 | 100 | 110 ± 33 |  |
| CCNc1[nH]c(=O)n(O)c(=O)c1C(=O)NCc1cc(F)cc(F)c1 [Compound 7-xix, N-(3,5-Difluorobenzyl)-1-(hydroxy)-4-(ethylamino)-1,2,3,6-tetrahydro-2,6-dioxopyrimidine-5-carboxamide] | 100 | 100 | 230 ± 62 |  |
| CCNc1[nH]c(=O)n(O)c(=O)c1C(=O)NCc1cccc(F)c1 [Compound 7-xv, N-(3-Fluorobenzyl)-1-(hydroxy)-4-(ethylamino)-1,2,3,6-tetrahydro-2,6-dioxopyrimidine-5-carboxamide] | 90 | 100 | 68 ± 7 |  |
| CCNc1[nH]c(=O)n(O)c(=O)c1C(=O)NCc1ccc(F)cc1 [Compound 7-xvi, N-(4-Fluorobenzyl)-1-(hydroxy)-4-(ethylamino)-1,2,3,6-tetrahydro-2,6-dioxopyrimidine-5-carboxamide] | 99 |  | 49 ± 4 | CC50 (CEM-SS cells): 19000 nM; EC50 (HIV-1IIIB; Human immunodeficiency virus 1): 33 nM; inhibition at 10 µM (HIV-1IIIB; [1]): 100%; EC50 (HIV-1IIIB; [3]): 15 to 61 nM; IC50 (HIV-1 integrase; read-out: IC50 (ST)): 21 to 77 nM |
| CCCNc1[nH]c(=O)n(O)c(=O)c1C(=O)NCc1cccc(Cl)c1F [Compound 7-xxviii, N-(3-Chloro-2-fluorobenzyl)-1-(hydroxy)-1,2,3,6-tetrahydro-2,6-dioxo-4-(propylamino)pyrimidine-5-carboxamide] | 48 | 33 |  |  |
| CCNc1[nH]c(=O)n(OCc2ccccc2)c(=O)c1C(=O)N(C)Cc1ccc(F)cc1 [Compound 15, 3-(Benzyloxy)-6-(ethylamino)-N-(4-fluorobenzyl)-N-methyl-2,4-dioxo-1,2,3,4-tetrahydropyrimidine-5-carboxamide] |  |  | 7000 ± 3300 |  |
| O=C(NCc1ccccc1)c1c(O)n(O)c(=O)[nH]c1=O [Compound 16, N-Benzyl-1,6-dihydroxy-2,4-dioxo-1,2,3,4-tetrahydropyrimidine-5-carboxamide] |  |  | 37000 ± 21000 |  |
| O=C(NCc1ccc(F)cc1)c1c2n(c(=O)n(O)c1=O)CCCN2 [Compound 17, N-(4-Fluorobenzyl)-7-(hydroxy)-2,3,4,6,7,8-hexahydro-6,8-dioxo-1H-pyrimido[1,6-a]pyrimidine-9-carboxamide] |  |  | 430 ± 130 |  |
